Results reported in patent US12037322B2, “AHR agonists” (Eli Lilly and Company, priority 2021, dated 2024).

Each molecule was assayed against T1, hAHR (Homo sapiens, UniProt P35869) (assay: hAHR nuclear translocation assay). Conditions: Jump-In T-REx HEK293 cells expressing AhR-EGFP; 45 min incubation; ratio of EGFP intensity in nuclear over cytosol; 20-point curve.
T1 construct: expressed in transfected cells
T1 sequence (P35869 11-848): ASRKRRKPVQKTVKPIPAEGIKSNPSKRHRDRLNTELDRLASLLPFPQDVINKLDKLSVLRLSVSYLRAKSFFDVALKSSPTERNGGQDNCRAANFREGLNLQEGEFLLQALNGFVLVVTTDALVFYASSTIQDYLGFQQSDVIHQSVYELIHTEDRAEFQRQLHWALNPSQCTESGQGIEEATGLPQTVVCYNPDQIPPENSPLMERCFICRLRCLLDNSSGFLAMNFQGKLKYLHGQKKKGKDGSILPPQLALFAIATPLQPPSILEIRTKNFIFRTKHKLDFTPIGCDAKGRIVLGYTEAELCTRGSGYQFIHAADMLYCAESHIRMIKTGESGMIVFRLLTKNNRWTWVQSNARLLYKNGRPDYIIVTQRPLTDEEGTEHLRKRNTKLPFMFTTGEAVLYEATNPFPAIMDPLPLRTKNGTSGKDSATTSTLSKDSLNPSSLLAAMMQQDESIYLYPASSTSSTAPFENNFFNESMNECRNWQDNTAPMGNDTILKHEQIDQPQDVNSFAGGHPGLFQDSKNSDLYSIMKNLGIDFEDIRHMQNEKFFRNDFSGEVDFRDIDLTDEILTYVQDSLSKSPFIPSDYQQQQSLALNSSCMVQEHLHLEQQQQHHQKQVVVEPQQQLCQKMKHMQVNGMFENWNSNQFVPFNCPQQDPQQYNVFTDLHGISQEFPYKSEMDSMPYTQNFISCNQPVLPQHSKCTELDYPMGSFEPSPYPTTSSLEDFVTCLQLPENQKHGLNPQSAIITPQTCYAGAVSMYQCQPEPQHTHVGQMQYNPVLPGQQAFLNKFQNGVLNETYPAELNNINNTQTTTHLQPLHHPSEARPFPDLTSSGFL
Assay type: cell-based
Procedure: Stable cell lines were established using Jump-In™ T-REx™ HEK293 Retargeting Kit (Life Technologies). hAhR cDNA was cloned into the pJTI R4 CMV-TO EGFP vector. The EGFP was cloned to the C-terminal of AHR to form AhR-EGFP chimera. The pJTI R4 CMV-TO AhR-EGFP vector was transfected using FuGENE® HD into Jump-In™ T-REx™ HEK293 cells. Transfected cells were selected using 2.5 mg/ml G418 for 10 to 14 days, then expanded, harvested, and suspended in freeze media (FBS with 8% DMSO) at 2×10^7 cells/mL, and aliquots were stored in liquid nitrogen. One day before the assay date, cells were thawed and resuspended in DMEM with 5% FBS in the presence of 1 μg/mL Doxycycline and plated into ploy-L-Lysine coated […]-384 ULTRA Microplates (Perkin Elmer) at 12,000 to 15,000 cells per well and incubated at 37° C. and 5% CO2 overnight. On the assay date, compound was serially diluted (1:2) into 384-well nunc plates with DMSO using acoustic dispensing (ECHO). The dose response was a 20-point curve. Compound was resuspended in 40 μL of DMEM plus 0.1% BSA. The culture media was damped and 25 μL of DMEM plus 0.1% BSA was added, then 25 μL of compound in DMEM plus 0.1% BSA was added into cell plates. Cells were incubated with compounds at 37° C. and 5% CO2 for 45 min.
The final DMSO concentration was 0.2%. The media was damped after 45 minutes incubation. The cells were fixed with 40 μL of cold MeOH (−20° C.) for 20 min. The MeOH was damped and 50 μL of DPBS containing 1 μg/mL Hochst was added into the cell plates. The intensity of EGFP was quantitated by using OPERA PHENIX® or Operetta™ high content image system (Perkin Elmer) with 20× Water Objective and five field per well. The ratio of EGFP fluorescent intensity in nuclear over cytosol was analyzed using a 4-parameter nonlinear logistic equation to determine the potency of AhR agonists.
CC1CCc2c1c(O)c(C(=O)Nc1ccccn1)c(=O)n2C (single isomer, unassigned) [Example 89, 4-Hydroxy-1,5-dimethyl-2-oxo-N-(2-pyridyl)-6,7-dihydro-5H-cyclopenta[b]pyridine-3-carboxamide] gave an EC50 of 2.33 nM. CC1CCc2c1c(O)c(C(=O)Nc1ccccn1)c(=O)n2C (single isomer, unassigned) [Example 90, 4-Hydroxy-1,5-dimethyl-2-oxo-N-(2-pyridyl)-6,7-dihydro-5H-cyclopenta[b]pyridine-3-carboxamide] was tested, and the EC50 was 2.89 nM. Work on CC1CCc2c1c(O)c(C(=O)Nc1ncccc1F)c(=O)n2C (single isomer, unassigned) [Example 91, N-(3-Fluoro-2-pyridyl)-4-hydroxy-1,5-dimethyl-2-oxo-6,7-dihydro-5H-cyclopenta[b]pyridine-3-carboxamide] yielded an EC50 of 4.86 nM. For CC1CCc2c1c(O)c(C(=O)Nc1ncccc1F)c(=O)n2C (single isomer, unassigned) [Example 92, N-(3-Fluoro-2-pyridyl)-4-hydroxy-1,5-dimethyl-2-oxo-6,7-dihydro-5H-cyclopenta[b]pyridine-3-carboxamide], the EC50 was 1.44 nM. CC1CCc2c1c(O)c(C(=O)Nc1ncc(Cl)cn1)c(=O)n2C (single isomer, unassigned) [Example 93, N-(5-Chloropyrimidin-2-yl)-4-hydroxy-1,5-dimethyl-2-oxo-6,7-dihydro-5H-cyclopenta[b]pyridine-3-carboxamide] showed an EC50 of 1.06 nM. For CC1CCc2c1c(O)c(C(=O)Nc1ncc(Cl)cn1)c(=O)n2C (single isomer, unassigned) [Example 94, N-(5-Chloropyrimidin-2-yl)-4-hydroxy-1,5-dimethyl-2-oxo-6,7-dihydro-5H-cyclopenta[b]pyridine-3-carboxamide], the EC50 was 0.533 nM. Work on CC1CCc2c1c(O)c(C(=O)Nc1ncc(F)cn1)c(=O)n2C (single isomer, unassigned) [Example 95, N-(5-Fluoropyrimidin-2-yl)-4-hydroxy-1,5-dimethyl-2-oxo-6,7-dihydro-5H-cyclopenta[b]pyridine-3-carboxamide] yielded an EC50 of 1.21 nM. In the case of CC1CCc2c1c(O)c(C(=O)Nc1ncc(F)cn1)c(=O)n2C (single isomer, unassigned) [Example 96, N-(5-Fluoropyrimidin-2-yl)-4-hydroxy-1,5-dimethyl-2-oxo-6,7-dihydro-5H-cyclopenta[b]pyridine-3-carboxamide], the EC50 is reported as 0.6 nM. Work on CC1CCc2c1c(O)c(C(=O)Nc1ncc(C(F)(F)F)cn1)c(=O)n2C (single isomer, unassigned) [Example 97, 4-Hydroxy-1,5-dimethyl-2-oxo-N-[5-(trifluoromethyl)pyrimidin-2-yl]-6,7-dihydro-5H-cyclopenta[b]pyridine-3-carboxamide] yielded an EC50 of 0.709 nM. CC1CCc2c1c(O)c(C(=O)Nc1ncc(C(F)(F)F)cn1)c(=O)n2C (single isomer, unassigned) [Example 98, 4-Hydroxy-1,5-dimethyl-2-oxo-N-[5-(trifluoromethyl)pyrimidin-2-yl]-6,7-dihydro-5H-cyclopenta[b]pyridine-3-carboxamide] showed an EC50 of 0.342 nM. CC1CCc2c1c(O)c(C(=O)Nc1ccc(F)cn1)c(=O)n2C (single isomer, unassigned) [Example 99, N-(5-Fluoro-2-pyridyl)-4-hydroxy-1,5-dimethyl-2-oxo-6,7-dihydro-5H-cyclopenta[b]pyridine-3-carboxamide] was tested, and the EC50 was 2.12 nM. In the case of CC1CCc2c1c(O)c(C(=O)Nc1ccc(F)cn1)c(=O)n2C (single isomer, unassigned) [Example 100, N-(5-Fluoro-2-pyridyl)-4-hydroxy-1,5-dimethyl-2-oxo-6,7-dihydro-5H-cyclopenta[b]pyridine-3-carboxamide], the EC50 is reported as 2.17 nM. COc1cnc(NC(=O)c2c(O)c3c(n(C)c2=O)CCC3C)nc1 (single isomer, unassigned) [Example 101, 4-Hydroxy-N-(5-methoxypyrimidin-2-yl)-1,5-dimethyl-2-oxo-6,7-dihydro-5H-cyclopenta[b]pyridine-3-carboxamide] was tested, and the EC50 was 6.01 nM.
